Laboratory results: patent publication US20260373160A1, “COMPOSITION FOR IMPROVEMENT, PREVENTION OR TREATMENT OF STRESS AND DEPRESSION RELATED DISEASES COMPRISING TALAMPANEL” (POSTECH RESEARCH AND BUSINESS DEVELOPMENT FOUNDATION, priority 2022, published 2026)

Tests used:
Format in all cases: in vivo, C57BL6/J mice
[1] = Body weight change in mouse model of chronic restraint stress-based depression; settings: for body weight change compared to the control group: 15 days, with 4 h daily restraint stress, FIG. 3
Method: (§1) Experimental animals, 8-9 week old male C57BL6/J mice, were provided by Hyochang Science in Daegu, Korea. Mice were provided with food and water ad libitum under diurnal lighting conditions (12 hours light, 12 hours dark). All animal experimental procedures were approved by the Institutional Animal Care and Use Committee (IACUC) of Pohang University of Science and Technology, and all experiments were conducted in compliance with the approved guidelines.
(§2) To induce mice of chronic restraint stress-based depression, 8-9 week old male C57BL6/J mice were housed in single cages one day before the experiment.
(§3) Thirty minutes after drug administration, the mice were induced to enter a 50 ml conical tube with a hole to allow breathing, and paper towels were placed to eliminate any empty space, ensuring the mice remained in restraint for 4 hours.

[2] = system: mouse model of chronic stress-induced depression; experiment: Forced swim test (FST) in mouse model of chronic stress-induced depression; settings: i.p. daily, last 4 of 6 minutes scored
Method: as §1
To induce mice of chronic restraint stress-based depression, 8-9 week old male C57BL6/J mice were housed in single cages one day before the experiment. […]
To perform the forced swim test in a mouse model of chronic stress-induced depression, a cylindrical tank, with a diameter of 20 cm and a height of 30 cm, was filled with water at a temperature range of 25 °C to 28 °C until the water level reached 15 cm. Then, each mouse was carefully placed in water, and the mouse's activity was recorded on video for 6 minutes. […]
Of the total 6 minutes of recording, the first 2 minutes were excluded as habituation, and the immobile time of each mouse was measured for the next 4 minutes. Mouse movement was defined as any activity other than the minimal movements required to maintain body balance and to ensure the head remained above water, and the immobile time was measured. […]

[3] = system: mouse model of chronic stress-induced depression; experiment: Tail suspension test (TST) in mouse model of chronic stress-induced depression; settings: 28 days of restraint stress, i.p. daily; 6 minutes scored; FIG. 6
Method: as §1, §2
Thirty minutes after drug administration, the mice were induced to enter a 50 ml conical tube with a hole to allow breathing, and paper towels were placed to eliminate any empty space, ensuring the mice remained in restraint for 4 hours. […]
The activity of each mouse was recorded on video for 6 minutes. Up to four mice were tested at a time, and the immobile time of each mouse was measured for a total of 6 minutes. The movement status of the mouse was defined based on limb movement, with a state of immobility determined when all limbs remained motionless, and the immobile time was measured. […]

[4] = system: mouse model of chronic stress-induced depression; experiment: Sucrose preference test (SPT) in mouse model of chronic stress-induced depression; settings: 28 days of restraint stress, i.p. daily; 2% sugar solution vs water, 3 hours; FIG. 7
Method: as §1, §2, §3
To perform a sugar preference test in a mouse model of chronic stress-induced depression, the mice were deprived of food and water for 18 hours on Day 1 of the experiment. On Days 2 and 3, the mice were provided with food, along with a 2% sugar solution and water simultaneously to allow exposure to the 2% sugar. […] To measure the intake of the mice, the weights of the solution and bottle were recorded before and after the 3-hour test.
Sucrose preference was calculated by the following expression: (Sugar solution intake/Total liquid intake)×100. […]

Structure (SMILES): CC(=O)N1N=C(c2ccc(N)cc2)c2cc3c(cc2C[C@H]1C)OCO3 [talampanel]
- body weight change compared to the control group ([1]; 1 mg/kg i.p. daily): increase in body weight compared to the control group from Day 8 of administration
- body weight change compared to the control group ([1]; 10 mg/kg i.p. daily): increase in body weight compared to the control group from Day 8 of administration
- effect on weight loss due to stress and depression ([1]; i.p. daily, restraint stress, conclusion from body weight measurement): preventing weight loss caused by sustained stress
- immobile time in forced swim test compared to the control group ([2]; 15 days of restraint stress, FIG. 4): significant reduction in immobile time
- immobile time in forced swim test compared to the control group ([2]; 28 days of restraint stress, FIG. 5): significant reduction in immobile time
- immobile time in tail suspension test compared to the control group [3]: significant reduction in immobile time
- sucrose preference (sugar solution intake/total liquid intake) compared to the control group [4]: increased preference for the sugar solution compared to the control group
